Reference: BindingDB's records for patent US9796704 (SYMPHONY EVOLUTION, INC., 2017)

Assays:
Experiment in all cases: AlphaScreen Assay
[1] = target: Receptor tyrosine-protein kinase erbB-2 (Homo sapiens, UniProt P04626)
Method: (§1) In AlphaScreen, when the donor and acceptor beads are close in proximity, a series of photochemical events will give rise to a fluorescent signal upon light activation. Here we use biotinylated poly-(Glu, Tyr) 4:1 as the kinase substrate, streptavidin-coated donor beads and anti-phosphortyrosine antibody PY100-coated acceptor beads. […] Compounds, ATP, biotinylated poly-(Glu, Tyr) and kinases are mixed in a volume of 20 μL for 1 hr at ambient temperature using Greiner 384-well white clear bottom medium binding plates. Then 10 uL solution containing 15-30 mg/mL AlphaScreen beads, 75 mM Hepes, pH 7.4, 300 mM NaCl, 120 mM EDTA, 0.3% BSA and 0.03% Tween-20 is added to each well. After 2-16 hr incubation of the beads, plates are read in a Perkin Elmer AlphaQuest reader (available from PerkinElmer Life and Analytical Sciences, Inc., of Boston Mass.).

[2] = target: Ephrin type-A receptor 2 (Homo sapiens, UniProt P29317)
Method: as §1

[3] = target: Vascular endothelial growth factor receptor 2 (Homo sapiens, UniProt P35968)
Chain of Vascular endothelial growth factor receptor 2 (P35968 whole entry): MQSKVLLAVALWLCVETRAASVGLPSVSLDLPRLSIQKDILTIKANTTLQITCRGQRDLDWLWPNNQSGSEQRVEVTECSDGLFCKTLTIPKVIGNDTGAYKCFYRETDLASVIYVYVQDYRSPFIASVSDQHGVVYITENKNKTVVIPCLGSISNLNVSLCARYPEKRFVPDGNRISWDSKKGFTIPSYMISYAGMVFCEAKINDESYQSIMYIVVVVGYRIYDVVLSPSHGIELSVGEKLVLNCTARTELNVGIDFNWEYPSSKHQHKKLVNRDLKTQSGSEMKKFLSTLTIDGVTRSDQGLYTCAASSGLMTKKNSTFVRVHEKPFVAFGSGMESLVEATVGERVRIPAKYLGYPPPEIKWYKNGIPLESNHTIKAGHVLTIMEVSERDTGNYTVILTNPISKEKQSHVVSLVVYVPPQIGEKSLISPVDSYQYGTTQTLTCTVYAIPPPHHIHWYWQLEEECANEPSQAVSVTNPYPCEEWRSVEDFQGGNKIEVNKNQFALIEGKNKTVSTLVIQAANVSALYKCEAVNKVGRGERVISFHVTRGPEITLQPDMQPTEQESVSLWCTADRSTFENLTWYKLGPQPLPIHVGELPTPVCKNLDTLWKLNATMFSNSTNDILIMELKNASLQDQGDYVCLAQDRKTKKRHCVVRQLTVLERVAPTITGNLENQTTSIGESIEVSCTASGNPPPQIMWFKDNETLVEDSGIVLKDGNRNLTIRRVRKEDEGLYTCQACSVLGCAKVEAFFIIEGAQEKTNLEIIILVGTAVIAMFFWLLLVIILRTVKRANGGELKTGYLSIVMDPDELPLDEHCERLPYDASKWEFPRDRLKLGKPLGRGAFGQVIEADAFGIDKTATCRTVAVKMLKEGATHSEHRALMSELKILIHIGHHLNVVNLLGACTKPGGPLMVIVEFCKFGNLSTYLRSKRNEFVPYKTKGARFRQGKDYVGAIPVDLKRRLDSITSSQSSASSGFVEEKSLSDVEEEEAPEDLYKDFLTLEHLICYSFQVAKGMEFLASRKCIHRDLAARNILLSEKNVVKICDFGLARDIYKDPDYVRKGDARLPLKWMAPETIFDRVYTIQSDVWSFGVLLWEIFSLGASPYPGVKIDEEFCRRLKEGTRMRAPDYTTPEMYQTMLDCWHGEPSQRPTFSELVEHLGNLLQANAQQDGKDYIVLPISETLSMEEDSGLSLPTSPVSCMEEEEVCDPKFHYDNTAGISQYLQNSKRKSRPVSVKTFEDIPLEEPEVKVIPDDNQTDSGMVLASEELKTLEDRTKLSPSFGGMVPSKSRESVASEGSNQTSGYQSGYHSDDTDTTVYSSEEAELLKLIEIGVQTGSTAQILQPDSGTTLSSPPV
Method: as §1

Chain of Ephrin type-A receptor 2 (P29317 whole entry): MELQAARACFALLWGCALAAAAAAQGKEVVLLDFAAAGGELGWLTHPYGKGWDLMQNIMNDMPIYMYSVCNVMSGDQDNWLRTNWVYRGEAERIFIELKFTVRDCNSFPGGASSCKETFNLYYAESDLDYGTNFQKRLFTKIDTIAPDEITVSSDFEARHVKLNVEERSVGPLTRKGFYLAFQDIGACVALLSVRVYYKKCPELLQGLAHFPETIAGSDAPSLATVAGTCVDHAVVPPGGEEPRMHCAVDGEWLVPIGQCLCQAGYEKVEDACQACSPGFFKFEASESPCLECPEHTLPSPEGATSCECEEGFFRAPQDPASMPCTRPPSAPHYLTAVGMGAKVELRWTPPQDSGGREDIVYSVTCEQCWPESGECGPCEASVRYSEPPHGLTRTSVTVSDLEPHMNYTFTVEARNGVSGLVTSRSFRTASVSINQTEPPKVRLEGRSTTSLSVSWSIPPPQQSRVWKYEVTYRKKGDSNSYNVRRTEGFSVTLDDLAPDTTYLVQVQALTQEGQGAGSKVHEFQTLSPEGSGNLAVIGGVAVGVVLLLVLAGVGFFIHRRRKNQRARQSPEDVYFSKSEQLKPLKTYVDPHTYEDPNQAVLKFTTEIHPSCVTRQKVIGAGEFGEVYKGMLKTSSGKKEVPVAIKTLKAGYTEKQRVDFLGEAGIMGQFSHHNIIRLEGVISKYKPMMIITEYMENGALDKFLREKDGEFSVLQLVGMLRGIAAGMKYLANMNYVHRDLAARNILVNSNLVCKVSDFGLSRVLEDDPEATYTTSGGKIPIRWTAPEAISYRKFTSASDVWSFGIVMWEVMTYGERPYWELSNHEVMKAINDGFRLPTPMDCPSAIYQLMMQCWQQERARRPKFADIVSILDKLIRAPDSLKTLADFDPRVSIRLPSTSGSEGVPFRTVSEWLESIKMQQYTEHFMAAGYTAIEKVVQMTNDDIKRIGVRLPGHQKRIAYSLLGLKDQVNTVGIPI
Chain of Receptor tyrosine-protein kinase erbB-2 (P04626 whole entry): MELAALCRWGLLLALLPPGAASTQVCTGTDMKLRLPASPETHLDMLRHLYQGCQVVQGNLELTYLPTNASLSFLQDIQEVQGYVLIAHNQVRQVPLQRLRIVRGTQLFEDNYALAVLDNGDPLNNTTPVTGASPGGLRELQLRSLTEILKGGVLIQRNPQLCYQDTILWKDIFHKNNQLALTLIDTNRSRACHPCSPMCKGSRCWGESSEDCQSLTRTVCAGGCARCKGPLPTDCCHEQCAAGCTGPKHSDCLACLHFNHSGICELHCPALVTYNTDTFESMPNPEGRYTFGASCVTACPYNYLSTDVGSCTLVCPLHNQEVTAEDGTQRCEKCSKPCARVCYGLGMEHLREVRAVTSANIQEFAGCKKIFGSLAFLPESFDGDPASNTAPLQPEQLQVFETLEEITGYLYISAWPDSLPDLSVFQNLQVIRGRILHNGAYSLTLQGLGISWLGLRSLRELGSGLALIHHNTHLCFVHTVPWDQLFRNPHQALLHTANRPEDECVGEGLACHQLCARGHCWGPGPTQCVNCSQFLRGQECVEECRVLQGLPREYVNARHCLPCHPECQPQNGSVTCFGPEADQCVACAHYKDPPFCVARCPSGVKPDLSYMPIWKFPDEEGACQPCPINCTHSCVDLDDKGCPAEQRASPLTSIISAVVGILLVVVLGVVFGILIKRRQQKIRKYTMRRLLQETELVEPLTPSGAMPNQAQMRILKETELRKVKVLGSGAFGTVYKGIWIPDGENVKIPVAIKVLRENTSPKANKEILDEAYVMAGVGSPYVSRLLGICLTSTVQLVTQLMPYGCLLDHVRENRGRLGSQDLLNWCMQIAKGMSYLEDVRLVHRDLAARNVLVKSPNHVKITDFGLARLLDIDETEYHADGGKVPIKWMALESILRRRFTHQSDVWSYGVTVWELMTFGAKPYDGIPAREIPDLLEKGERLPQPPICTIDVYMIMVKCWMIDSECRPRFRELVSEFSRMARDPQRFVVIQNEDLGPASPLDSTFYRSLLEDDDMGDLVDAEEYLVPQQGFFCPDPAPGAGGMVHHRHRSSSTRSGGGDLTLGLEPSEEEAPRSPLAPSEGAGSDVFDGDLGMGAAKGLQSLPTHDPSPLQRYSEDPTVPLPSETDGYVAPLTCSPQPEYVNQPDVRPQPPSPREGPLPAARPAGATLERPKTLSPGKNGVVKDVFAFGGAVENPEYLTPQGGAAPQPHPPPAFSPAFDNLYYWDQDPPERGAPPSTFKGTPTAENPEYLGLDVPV

Row | SMILES | IC50 [1] | IC50 [2] | IC50 [3]
1 | COc1cc2c(Nc3ccc(Cl)c(Cl)c3)ncnc2cc1OCC1CN2CCOCC2CO1 (stereo not given) [US9796704, Entry 25] | in the range around 10500 nM | – | –
2 | COc1cc2c(Nc3ccc(Cl)c(Cl)c3)ncnc2cc1OC[C@@H]1CO[C@H]2[C@@H]1OC[C@@H]2OC [US9796704, Entry 42] | in the range around 10500 nM | – | –
3 | COc1cc2c(Nc3ccc(Cl)c(Cl)c3F)ncnc2cc1OCC1CO[C@@H]2[C@@H](OC)CO[C@H]12 (stereo not given in full) [US9796704, Entry 43] | in the range around 10500 nM | – | –
4 | COc1cc2c(Nc3ccc(C(F)(F)F)cc3Br)ncnc2cc1O[C@@H]1CO[C@@H]2[C@H]1OC[C@H]2F [US9796704, Entry 125] | in the range around 525 nM | – | –
5 | COc1cc2c(Nc3ccc(Cl)c(Cl)c3)ncnc2cc1OCC1CN(Cc2ccccc2)CCO1 (stereo not given) [US9796704, Entry 147] | – | in the range around 10500 nM | in the range around 525 nM
6 | COc1cc2c(Nc3ccc(Cl)c(Cl)c3)ncnc2cc1OCc1noc(C2CCCNC2)n1 (stereo not given) [US9796704, Entry 153] | – | in the range around 525 nM | in the range around 525 nM
7 | COc1cc2c(Nc3ccc(Cl)c(Cl)c3)ncnc2cc1OCc1noc(C2CCCCN2C)n1 (stereo not given) [US9796704, Entry 154] | – | in the range around 525 nM | in the range around 525 nM
8 | COc1cc2c(Nc3ccc(Cl)c(Cl)c3)ncnc2cc1OCc1noc(C2CCCN(C)C2)n1 (stereo not given) [US9796704, Entry 156] | – | in the range around 525 nM | in the range around 525 nM
9 | COc1cc2c(Nc3ccc(Cl)c(Cl)c3)ncnc2cc1OCc1cc(C)on1 [US9796704, Entry 160] | – | in the range around 525 nM | in the range around 525 nM
10 | COc1cc2c(Nc3ccc(Cl)c(Cl)c3)ncnc2cc1OCc1ccc2nonc2c1 [US9796704, Entry 163] | – | in the range around 525 nM | in the range around 525 nM
11 | COc1cc2c(Nc3ccc(Cl)c(Cl)c3)ncnc2cc1OCc1c(-c2ccccc2)nn(C)c1Cl [US9796704, Entry 175] | – | in the range around 525 nM | in the range around 525 nM
12 | COc1cc2c(Nc3ccc(Cl)c(Cl)c3)ncnc2cc1OCc1nc(-c2ccncc2)cs1 [US9796704, Entry 203] | in the range around 525 nM | – | –
13 | CCN1CCN(c2noc(COc3cc4ncnc(Nc5ccc(Cl)c(Cl)c5)c4cc3OC)n2)CC1 [US9796704, Entry 220] | in the range around 525 nM | – | in the range around 525 nM
14 | COc1cc2c(Nc3ccc(Cl)c(Cl)c3)ncnc2cc1OCc1csc(-c2ccc(C(F)(F)F)cc2)n1 [US9796704, Entry 222] | in the range around 525 nM | – | in the range around 525 nM
15 | COc1cc2c(Nc3ccc(Cl)c(Cl)c3)ncnc2cc1OCc1csc(-c2ccc(Cl)cc2)n1 [US9796704, Entry 223] | in the range around 525 nM | – | in the range around 525 nM
16 | COc1cc2c(Nc3ccc(Cl)c(Cl)c3)ncnc2cc1OCc1noc(-c2c(C)noc2C)n1 [US9796704, Entry 224] | in the range around 525 nM | – | in the range around 525 nM
17 | COc1cc2c(Nc3ccc(Cl)c(Cl)c3)ncnc2cc1OCc1csc2ccc(Cl)cc12 [US9796704, Entry 225] | in the range around 10500 nM | – | in the range around 10500 nM
18 | COc1cc2c(Nc3ccc(Cl)c(Cl)c3)ncnc2cc1OCc1noc(-c2ccccc2OC)n1 [US9796704, Entry 227] | in the range around 525 nM | – | in the range around 525 nM
19 | COc1cc2c(Nc3ccc(Cl)c(Cl)c3)ncnc2cc1OCc1nnc(-c2ccc(C)cc2)o1 [US9796704, Entry 228] | in the range around 525 nM | – | in the range around 525 nM

Row | SMILES | IC50 [1] | IC50 [2] | IC50 [3]
20 | COc1cc2c(Nc3ccc(Cl)c(Cl)c3)ncnc2cc1OCc1nccn1Cc1ccccc1 [US9796704, Entry 229] | in the range around 525 nM | – | in the range around 525 nM
21 | COc1cc2c(Nc3ccc(Cl)c(Cl)c3)ncnc2cc1OCc1cc(Br)cc(Br)c1 [US9796704, Entry 232] | in the range around 525 nM | – | –
22 | COc1cc2c(Nc3ccc(Cl)c(Cl)c3)ncnc2cc1OCc1noc(-c2ccccc2)n1 [US9796704, Entry 235] | in the range around 525 nM | – | –
23 | CCN1CCCC(c2nc(COc3cc4ncnc(Nc5ccc(Cl)c(Cl)c5)c4cc3OC)no2)C1 (stereo not given) [US9796704, Entry 239] | in the range around 10500 nM | – | –
24 | COc1cc2c(Nc3ccc(Cl)c(Cl)c3)ncnc2cc1OCc1csc(N(C)C)n1 [US9796704, Entry 240] | in the range around 525 nM | – | in the range around 525 nM
25 | CCN1CCCOC(COc2cc3ncnc(Nc4ccc(Cl)c(Cl)c4)c3cc2OC)C1 (stereo not given) [US9796704, Entry 241] | in the range around 525 nM | – | in the range around 525 nM
26 | CCN1CCC(c2nc(COc3cc4ncnc(Nc5ccc(Cl)c(Cl)c5)c4cc3OC)cs2)CC1 [US9796704, Entry 242] | in the range around 525 nM | – | –
27 | COc1cc2c(Nc3ccc(Cl)c(Cl)c3)ncnc2cc1OCc1csc(CO)n1 [US9796704, Entry 246] | in the range around 525 nM | – | in the range around 525 nM
28 | COc1cc2c(Nc3ccc(Cl)c(Cl)c3)ncnc2cc1OCc1csc([C@@H]2CSCN2)n1 [US9796704, Entry 248] | in the range around 525 nM | – | in the range around 525 nM
29 | COc1cc2c(Nc3ccc(Cl)c(Cl)c3)ncnc2cc1OCc1csc(C2CCCCN2)n1 (stereo not given) [US9796704, Entry 249] | in the range around 10500 nM | – | in the range around 525 nM
30 | COc1cc2c(Nc3ccc(Cl)c(Cl)c3)ncnc2cc1OCc1csc(C2CCCCN2C)n1 (stereo not given) [US9796704, Entry 250] | in the range around 10500 nM | – | in the range around 525 nM
31 | COc1cc2c(Nc3ccc(Cl)c(Cl)c3)ncnc2cc1OCc1csc(C2CCCNC2)n1 (stereo not given) [US9796704, Entry 251] | in the range around 10500 nM | – | in the range around 10500 nM
32 | CCN1CCCCC1c1nc(COc2cc3ncnc(Nc4ccc(Cl)c(Cl)c4)c3cc2OC)cs1 (stereo not given) [US9796704, Entry 253] | in the range around 10500 nM | – | in the range around 10500 nM
33 | CCN1CCCC(c2nc(COc3cc4ncnc(Nc5ccc(Cl)c(Cl)c5)c4cc3OC)cs2)C1 (stereo not given) [US9796704, Entry 254] | in the range around 525 nM | – | in the range around 10500 nM
34 | COCCN1CCCOC(COc2cc3ncnc(Nc4ccc(Cl)c(Cl)c4)c3cc2OC)C1 (stereo not given) [US9796704, Entry 260] | in the range around 525 nM | – | in the range around 10500 nM
35 | COc1cc2c(Nc3ccc(Cl)c(Cl)c3)ncnc2cc1OCC1CN(C(C)C)CCCO1 (stereo not given) [US9796704, Entry 261] | in the range around 525 nM | – | in the range around 10500 nM
36 | COc1cc2c(Nc3ccc(Cl)c(Cl)c3)ncnc2cc1OCc1csc(N2CCNCC2)n1 [US9796704, Entry 262] | in the range around 10500 nM | – | in the range around 10500 nM
37 | COc1cc2c(Nc3ccc(Cl)c(Cl)c3)ncnc2cc1OCc1noc(C2CCCN2)n1 (stereo not given) [US9796704, Entry 263] | in the range around 10500 nM | – | in the range around 10500 nM
